# Measurements as given in patent publication US11945822B2, “Pyrazolo-triazine and/or pyrazolo-pxrimidine derivatives as selective inhibitor of cyclin dependent kinase” (QURIENT CO., LTD., priority 2018, dated 2024).
# What was measured:
# CDK1/Cyclin B = target: T1, CDK1/Cyclin B (Homo sapiens, UniProt P06493); experiment: Enzymatic assay for CDK1 (FRET based LANCE Ultra kinase assay); format: biochemical; conditions: read-out: CDK1 enzymatic activity (IC50 range)
# T1 construct: purchased Invitrogen PR4768C
# T1 sequence (P06493 whole entry): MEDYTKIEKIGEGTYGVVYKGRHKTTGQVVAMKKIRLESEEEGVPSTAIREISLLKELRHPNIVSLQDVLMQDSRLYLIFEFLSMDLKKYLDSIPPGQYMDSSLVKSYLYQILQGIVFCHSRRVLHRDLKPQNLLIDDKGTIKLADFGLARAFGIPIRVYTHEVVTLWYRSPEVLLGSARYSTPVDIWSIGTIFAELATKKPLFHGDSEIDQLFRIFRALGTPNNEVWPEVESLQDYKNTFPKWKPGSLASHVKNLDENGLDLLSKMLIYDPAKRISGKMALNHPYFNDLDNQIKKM
# T1 sequence (P14635 whole entry partner): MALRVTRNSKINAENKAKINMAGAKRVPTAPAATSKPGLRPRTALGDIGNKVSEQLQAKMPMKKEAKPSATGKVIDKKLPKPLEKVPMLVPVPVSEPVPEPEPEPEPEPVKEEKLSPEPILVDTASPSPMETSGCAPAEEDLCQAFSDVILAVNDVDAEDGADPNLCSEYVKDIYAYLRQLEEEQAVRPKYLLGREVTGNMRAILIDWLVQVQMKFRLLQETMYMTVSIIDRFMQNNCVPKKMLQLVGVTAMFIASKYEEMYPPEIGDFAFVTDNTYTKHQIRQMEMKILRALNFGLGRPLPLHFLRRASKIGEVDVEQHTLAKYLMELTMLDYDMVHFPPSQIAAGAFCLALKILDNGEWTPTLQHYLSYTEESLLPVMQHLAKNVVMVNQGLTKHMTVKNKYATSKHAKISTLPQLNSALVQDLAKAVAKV
# Summary of the method: (§1)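 LANCE Ultra TR-FRET: ULight-MBP peptide (68 nM) with ATP at Km, […], 60 min at 23° C. EDTA plus Eu-anti-phospho-MBP added, another 60 min, then 665/615 nm emission read. Compounds tested as 8-dose 4-fold DMSO dilutions.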
# CDK2/Cyclin A = target: T2, CDK2/Cyclin A (Homo sapiens, UniProt P24941); experiment: Enzymatic assay for CDK2 (FRET based LANCE Ultra kinase assay); format: biochemical; conditions: read-out: CDK2 enzymatic activity (IC50 range)
# T2 construct: purchased Invitrogen PV6290
# Summary of the method: as §1
# CDK5/p25 = target: T3, CDK5/p25 (Homo sapiens, UniProt Q00535); experiment: Enzymatic assay for CDK5 (FRET based LANCE Ultra kinase assay); format: biochemical; conditions: read-out: CDK5 enzymatic activity (IC50 range)
# T3 construct: purchased Invitrogen PR8543B
# T3 sequence (Q00535 whole entry): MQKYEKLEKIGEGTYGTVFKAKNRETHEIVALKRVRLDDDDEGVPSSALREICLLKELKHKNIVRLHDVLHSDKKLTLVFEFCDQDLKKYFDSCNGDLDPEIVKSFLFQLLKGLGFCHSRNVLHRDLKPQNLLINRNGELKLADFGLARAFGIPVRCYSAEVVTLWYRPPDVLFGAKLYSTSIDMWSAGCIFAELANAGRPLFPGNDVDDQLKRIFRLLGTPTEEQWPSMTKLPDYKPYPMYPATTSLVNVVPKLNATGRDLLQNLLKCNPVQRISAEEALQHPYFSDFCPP
# T3 sequence (Q15078 99-307 partner limits assumed): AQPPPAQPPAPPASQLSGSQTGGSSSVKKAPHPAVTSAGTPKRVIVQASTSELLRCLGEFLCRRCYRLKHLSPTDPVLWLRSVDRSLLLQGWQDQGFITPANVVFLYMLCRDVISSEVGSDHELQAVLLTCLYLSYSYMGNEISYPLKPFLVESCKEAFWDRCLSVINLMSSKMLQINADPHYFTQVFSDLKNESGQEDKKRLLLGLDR
# Summary of the method: as §1
# CDK7/Cyclin H/MNAT1 = target: T4, CDK7/Cyclin H/MNAT1 (Homo sapiens, UniProt P50613); experiment: Enzymatic assay for CDK7 (FRET based LANCE Ultra kinase assay); format: biochemical; conditions: for IC50: read-out: CDK7 enzymatic activity (IC50 range)
# T4 construct: purchased Invitrogen PR6749B
# T4 sequence (P50613 whole entry): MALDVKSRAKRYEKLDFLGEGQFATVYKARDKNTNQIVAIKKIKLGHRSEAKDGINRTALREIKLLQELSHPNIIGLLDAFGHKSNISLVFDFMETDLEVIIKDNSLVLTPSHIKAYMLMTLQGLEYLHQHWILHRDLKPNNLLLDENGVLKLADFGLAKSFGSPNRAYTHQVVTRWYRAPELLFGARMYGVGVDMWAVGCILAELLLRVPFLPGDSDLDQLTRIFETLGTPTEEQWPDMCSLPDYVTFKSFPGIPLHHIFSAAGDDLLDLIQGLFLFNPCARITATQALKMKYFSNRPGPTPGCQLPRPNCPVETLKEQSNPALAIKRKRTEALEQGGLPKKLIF
# T4 sequence (P51946 whole entry partner): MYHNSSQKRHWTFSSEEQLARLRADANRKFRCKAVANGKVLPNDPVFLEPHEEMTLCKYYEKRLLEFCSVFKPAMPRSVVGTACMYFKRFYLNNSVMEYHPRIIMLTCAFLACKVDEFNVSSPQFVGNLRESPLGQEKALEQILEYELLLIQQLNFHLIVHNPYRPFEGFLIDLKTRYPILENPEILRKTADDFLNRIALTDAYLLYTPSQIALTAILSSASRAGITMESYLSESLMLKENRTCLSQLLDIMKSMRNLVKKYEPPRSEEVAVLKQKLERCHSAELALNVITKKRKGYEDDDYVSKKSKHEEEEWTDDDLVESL
# T4 sequence (P51948 whole entry partner): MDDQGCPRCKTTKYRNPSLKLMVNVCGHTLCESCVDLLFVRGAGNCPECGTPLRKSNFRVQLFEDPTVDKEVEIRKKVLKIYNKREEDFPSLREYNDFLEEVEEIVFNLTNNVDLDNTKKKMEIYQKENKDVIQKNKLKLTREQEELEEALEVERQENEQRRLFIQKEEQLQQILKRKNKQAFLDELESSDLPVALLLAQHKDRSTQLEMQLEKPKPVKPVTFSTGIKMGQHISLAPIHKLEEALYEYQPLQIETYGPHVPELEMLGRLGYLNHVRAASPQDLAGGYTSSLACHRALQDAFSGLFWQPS
# Summary of the method: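 LANCE Ultra TR-FRET kinase assay using a ULight-labeled peptide substrate and a Eu-labeled anti-phospho antibody, with ATP at its Km. Purified CDK/cyclin complex was added to compound after brief centrifugation.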
# H460 = experiment: Cellular H460 viability assay (CellTiter-Glo, 72 hours); format: cell-based; conditions: Homo sapiens, NCI-H460
# Summary of the method: (§2)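 Cells plated in 96 wells and exposed to compound 72 h at 37 °C, 5% CO2, final DMSO below 0.1%, DMSO control. Viability by CellTiter-Glo luminescence, duplicate.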
# MM.1S = experiment: Cellular MM.1S viability assay (CellTiter-Glo, 72 hours); format: cell-based; conditions: Homo sapiens, MM1.S
# Summary of the method: (§3)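 Cells seeded at 1×10^4/well (MM.1S), 5×10^3 (OVCAR-3) or 1×10^3 (A2780), grown in RPMI-1640 with 10% FBS. After 24 h, compound added at 0.0015–10 uM, final DMSO below 0.1%, for 72 h at 37° C. Viability read by CellTiter-Glo luminescence in duplicate, with curve fitting.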
# MV4-11 = experiment: Cellular MV4-11 viability assay (CellTiter-Glo, 72 hours); format: cell-based; conditions: Homo sapiens
# Summary of the method: as §2
# MOLT-4 = experiment: Cellular MOLT-4 viability assay (CellTiter-Glo, 72 hours); format: cell-based; conditions: Homo sapiens, MOLT4 viability assay
# Summary of the method: as §2
# RPMI-8226 = experiment: Cellular RPMI-8226 viability assay (CellTiter-Glo, 72 hours); format: cell-based; conditions: Homo sapiens
# Summary of the method: as §2
# HCT116 = experiment: Cellular HCT116 viability assay (CellTiter-Glo, 72 hours); format: cell-based; conditions: Homo sapiens, HCT-116
# Summary of the method: as §2
# A2780 = experiment: Cellular A2780 viability assay (CellTiter-Glo, 72 hours); format: cell-based; conditions: Homo sapiens
# Summary of the method: as §3
SMILES,IC50 (CDK1/Cyclin B) [µM],IC50 (CDK2/Cyclin A) [µM],IC50 (CDK5/p25) [µM],CDK1/CDK7: Selectivity of CDK7 inhibition over CDK1 inhibition (CDK7/Cyclin H/MNAT1),CDK2/CDK7: Selectivity of CDK7 inhibition over CDK2 inhibition (CDK7/Cyclin H/MNAT1),CDK5/CDK7: Selectivity of CDK7 inhibition over CDK5 inhibition (CDK7/Cyclin H/MNAT1),IC50 (CDK7/Cyclin H/MNAT1) [µM],IC50 (H460) [µM],IC50 (MM.1S) [µM],IC50 (MV4-11) [µM],IC50 (MOLT-4) [µM],IC50 (RPMI-8226) [µM],IC50 (HCT116) [µM],IC50 (A2780) [µM]
CC(C)c1cnn2c(NCc3c(Cl)cccc3-n3cccn3)nc(N3CCC(N)CC3)nc12 [Compound 38],> 1,> 1,0.1 to 1,A (A=greater than 200 fold),A (A=greater than 200 fold),"B (B=less than 200 fold, but greater than 20 fold)",< 0.1,< 1,≤ 1,< 1,1 to 10,< 1,,
COc1cccc(-n2cccn2)c1CNc1nc(N2CCC(N)CC2)nc2c(C(C)C)cnn12 [Compound 39],> 1,> 1,> 1,A (A=greater than 200 fold),A (A=greater than 200 fold),A (A=greater than 200 fold),< 0.1,1 to 10,1 to 10,1 to 10,> 10,1 to 10,,
CC(C)c1cnn2c(NCc3c(F)cccc3-n3cccn3)nc(N3CCC(N)CC3)nc12 [Compound 42],> 1,0.1 to 1,0.1 to 1,A (A=greater than 200 fold),A (A=greater than 200 fold),"B (B=less than 200 fold, but greater than 20 fold)",< 0.1,< 1,≤ 1,< 1,1 to 10,< 1,,
Cc1cccc(-n2cccn2)c1CNc1nc(N2CCC(N)CC2)nc2c(C(C)C)cnn12 [Compound 43],> 1,> 1,> 1,A (A=greater than 200 fold),A (A=greater than 200 fold),A (A=greater than 200 fold),< 0.1,< 1,1 to 10,< 1,1 to 10,1 to 10,< 1,
CC(C)c1cnn2c(NCc3c(-n4cccn4)cccc3C(F)(F)F)nc(N3CCC(N)CC3)nc12 [Compound 46],> 1,> 1,> 1,A (A=greater than 200 fold),A (A=greater than 200 fold),A (A=greater than 200 fold),< 0.1,1 to 10,1 to 10,1 to 10,1 to 10,1 to 10,,
CC(C)c1cnn2c(NCc3ccccc3OC3CCN(C)CC3)nc(N3CCC(N)CC3)nc12 [Compound 66],> 1,> 1,0.1 to 1,A (A=greater than 200 fold),A (A=greater than 200 fold),A (A=greater than 200 fold),< 0.1,< 1,≤ 1,< 1,1 to 10,1 to 10,< 1,
CC(C)c1cnn2c(NCc3ccccc3-n3cc4ccccc4n3)nc(N3CCC(N)CC3)nc12 [Compound 72],0.1 to 1,0.1 to 1,0.1 to 1,A (A=greater than 200 fold),"B (B=less than 200 fold, but greater than 20 fold)","B (B=less than 200 fold, but greater than 20 fold)",< 0.1,< 1,≤ 1,< 1,< 1,< 1,< 1,
CC(C)c1cnn2c(NCc3ccccc3-c3ccc4ccccc4n3)cc(N3CCC(N)CC3)nc12 [Compound 73],> 1,> 1,0.1 to 1,A (A=greater than 200 fold),A (A=greater than 200 fold),"B (B=less than 200 fold, but greater than 20 fold)",< 0.1,< 1,≤ 1,< 1,1 to 10,1 to 10,< 1,
CC(C)c1cnn2c(NCc3ccccc3-c3nccc4ccccc34)nc(N3CCC(N)CC3)nc12 [Compound 79],> 1,> 1,> 1,A (A=greater than 200 fold),A (A=greater than 200 fold),A (A=greater than 200 fold),< 0.1,1 to 10,1 to 10,1 to 10,> 10,1 to 10,,
CC(C)c1cnn2c(NCc3ccccc3-c3nccc4c(NC(=O)CCCN(C)C)cccc34)nc(N3CCC(N)CC3)nc12 [Compound 90],> 1,> 1,> 1,A (A=greater than 200 fold),A (A=greater than 200 fold),A (A=greater than 200 fold),< 0.1,1 to 10,> 10,< 1,> 10,1 to 10,1 to 10,
CC(C)c1cnn2c(NCc3ccccc3-c3cc4ccccc4[nH]3)nc(N3CCC(N)CC3)nc12 [Compound 102],0.1 to 1,0.1 to 1,< 0.1,"B (B=less than 200 fold, but greater than 20 fold)","B (B=less than 200 fold, but greater than 20 fold)",C (C=less than 20 fold),< 0.1,< 1,≤ 1,< 1,,< 1,< 1,≤ 1
CC(C)c1cnn2c(NCc3ccccc3-n3cc4ccc(C(F)(F)F)cc4n3)nc(N3CCC(N)CC3)nc12 [Compound 104],> 1,> 1,0.1 to 1,A (A=greater than 200 fold),A (A=greater than 200 fold),"B (B=less than 200 fold, but greater than 20 fold)",< 0.1,< 1,≤ 1,< 1,1 to 10,< 1,< 1,
CC(C)c1cnn2c(NCc3ccccc3-n3cc4cc(F)ccc4n3)nc(N3CCC(N)CC3)nc12 [Compound 108],0.1 to 1,0.1 to 1,0.1 to 1,"B (B=less than 200 fold, but greater than 20 fold)","B (B=less than 200 fold, but greater than 20 fold)","B (B=less than 200 fold, but greater than 20 fold)",< 0.1,< 1,≤ 1,< 1,1 to 10,< 1,< 1,
CC(C)c1cnn2c(NCc3ccccc3-n3cccn3)nc(-c3cccc(C(=O)N4CCC(N)CC4)c3)nc12 [Compound 171],> 1,> 1,> 1,A (A=greater than 200 fold),A (A=greater than 200 fold),A (A=greater than 200 fold),< 0.1,< 1,≤ 1,< 1,1 to 10,1 to 10,< 1,
